These results are taken from patent US6664253B2, “Neurokinin antagonists” (Boehringer Ingelheim Pharma KG, priority 2000, dated 2003).

pKi: −log10 of the molar value.

The target in the assay is T1, NK1-receptor (substance P-receptor) (Homo sapiens, UniProt P25103).
T1 construct: expressed in transfected cells; host or cells: IM-9 human lymphoblastoma cells
T1 sequence (P25103 whole entry): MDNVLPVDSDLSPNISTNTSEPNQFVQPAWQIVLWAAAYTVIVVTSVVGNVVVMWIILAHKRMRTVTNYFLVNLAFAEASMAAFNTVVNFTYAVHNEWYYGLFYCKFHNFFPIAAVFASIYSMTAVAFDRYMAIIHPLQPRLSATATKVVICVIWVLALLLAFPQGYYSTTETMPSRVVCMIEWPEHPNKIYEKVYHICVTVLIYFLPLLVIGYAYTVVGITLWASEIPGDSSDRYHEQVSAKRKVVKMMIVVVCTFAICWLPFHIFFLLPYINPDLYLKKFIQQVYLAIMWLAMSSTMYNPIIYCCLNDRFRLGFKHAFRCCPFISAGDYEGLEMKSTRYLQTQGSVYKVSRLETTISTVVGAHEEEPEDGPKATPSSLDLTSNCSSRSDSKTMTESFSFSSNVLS
Briefly: NK1-receptor affinity, displacement of 125I-labelled substance P on IM-9 cells. The note with it: human lymphoblastoma cells (IM-9) with cloned NK1-receptors. It is filed as binding. The procedure:
The receptor affinity to the NK1-receptor (substance P-receptor) is determined on human lymphoblastoma cells (IM-9) with cloned NK1-receptors, by measuring the displacement of ^125I-labelled substance P. The Ki-values thus obtained show the efficacy of the compounds.
In general terms: In a radioligand displacement assay an active substance lowers the binding of a labelled ligand.
`CNC(=O)NC1CCN(C(C(=O)N(C)CCc2cc(C(F)(F)F)cc(C(F)(F)F)c2)c2ccccc2)CC1` (stereo not drawn) [Example 1, N-[2-(3,5-bis-trifluoromethyl-phenyl)-ethyl]-N-methyl-2-[4-(3-methyl-ureido)-piperidin-1-yl]-2-phenyl-acetamide] gave a pKi of 9.15.

In turn, `CN(CCc1cc(C(F)(F)F)cc(C(F)(F)F)c1)C(=O)[C@H](c1ccccc1)N1CCC(N2CCCOC2=O)CC1` [Example 2, (S)-N-[2-(3,5-bis-trifluoromethyl-phenyl)-ethyl]-N-methyl-2-[4-(2-oxo-[1.3]oxazinan-3-yl)-piperidin-1-yl]-2-phenyl-acetamide] had a pKi of 8.77.

For `CN(CCc1cc(C(F)(F)F)cc(C(F)(F)F)c1)C(=O)[C@H](c1ccccc1)N1CCC(N2C(=O)COC2=O)CC1` [Example 3], the negative logarithm of the Ki (pKi) was 9.15.

Compound `CN(CCc1cc(C(F)(F)F)cc(C(F)(F)F)c1)C(=O)[C@H](c1ccccc1)N1CCC(N2CCC(=O)N(C)C2=O)CC1` [Example 4] showed a negative-log Ki (pKi) of 9.22.

For `CC1CC(=O)N(C)C(=O)N1C1CCN([C@H](C(=O)N(C)CCc2cc(C(F)(F)F)cc(C(F)(F)F)c2)c2ccccc2)CC1` (stereo partly drawn) [Example 5], the negative logarithm of the Ki (pKi) is 9.22.

With `CN(CCc1cc(C(F)(F)F)cc(C(F)(F)F)c1)C(=O)[C@H](c1ccccc1)N1CCC(N2CCNC2=O)CC1` [Example 6], the negative-log Ki (pKi) is 8.46.

The compound `CN(CCc1cc(C(F)(F)F)cc(C(F)(F)F)c1)C(=O)[C@H](c1ccccc1)N1CCC(NC(=O)Nc2ccccc2)CC1` [Example 7] had a negative logarithm of the Ki (pKi) of 9.10.

For the compound `CC(=O)N1CCN(C2CCN(C(C(=O)NCc3cc(C(F)(F)F)cc(C(F)(F)F)c3)c3ccccc3)CC2)C1=O` (stereo not drawn) [Example B-6, reference compound], the pKi is 6.78.

In turn, `O=C(Nc1ccccc1)NC1CCN(C(C(=O)NCc2cc(C(F)(F)F)cc(C(F)(F)F)c2)c2ccccc2)CC1` (stereo not drawn) [Example B-7, reference compound] gave a negative logarithm of the Ki (pKi) of 6.36.

The pKi is the Ki on a negative log10 scale, so that one unit is a factor of ten. Low values mean a large Ki, high ones a small Ki.
